The text below walks through data of patent US8664210B2, “Aminooxime derivatives of 2- and/or 4-substituted androstanes and androstenes as medicaments for cardiovascular disorders” (priority 2007, dated 2014).

One data set deals with anesthetized guinea-pig. Nature of the data set: inotropic effect and lethal dose in anesthetized guinea-pig (infusion over 90 minutes). It counts as in vivo. The settings on record: for Dead/treated / ED80 (inotropic potency, dose increasing +dP/dTmax by 80%) / EDmax (dose inducing maximum positive inotropic effect) / Emax % increase in +dP/dTmax (maximum increase in contractile force) / Maximum dose infused: anesthetized guinea-pig, infusion over 90 min; for Lethal dose/ED80: calculated in the died animals. How it is done:
The inotropic activity is shown as maximum increase in contractile force (Emax measured as +dP/dTmax), dose inducing maximum positive inotropic effect (EDmax), inotropic potency (ED80, dose increasing +dP/dTmax by 80%); the toxicity as the ratio between lethal dose and inotropic potency (calculated in the died animals). All animals, previously anesthetized, were administered the drug through infusion over a 90 minute period.

The target of data set [1] is Dog Kidney Na+, K+-ATPase (Canis lupus familiaris, UniProt P50997). Nature of the data set: Dog kidney Na+,K+-ATPase inhibition (hydrolysis of 32P-ATP). The data set is classed as biochemical.
Where [2] appears, read: dog kidney enzyme, read-out: Na+, K+-ATPase Inhibition IC50.

Counter-ions that a name gives are not always drawn. Like-named read-outs stand apart in the source and are kept apart here.

One may read the IC50 as the concentration at which inhibition is half-maximal.

With `C[C@H]1O[C@@H](O[C@H]2[C@@H](O)C[C@H](O[C@H]3[C@@H](O)C[C@H](O[C@H]4CC[C@@]5(C)[C@H](CC[C@@H]6[C@@H]5C[C@@H](O)[C@]5(C)[C@@H](C7=CC(=O)OC7)CC[C@]65O)C4)O[C@@H]3C)O[C@@H]2C)C[C@H](O)[C@@H]1O` [Digoxin, digoxin], in the data set with anesthetized guinea-pig, the Dead/treated is recorded as 10/10; the “ED80 (inotropic potency, dose increasing +dP/dTmax by 80%)” value is 0.29 µmol/kg; the “EDmax (dose inducing maximum positive inotropic effect)” value (“EDmax” for short) amounted to 0.65 µmol/kg; the “Emax % increase in +dP/dTmax (maximum increase in contractile force)” value (from here on “Emax % increase in +dP/dTmax”) is 158%. Moreover, in the data set with anesthetized guinea-pig, the Maximum dose infused was 1.16 µmol/kg and the “Lethal dose/ED80” value is 4.0. Regarding `CC1=C2CC[C@H]3[C@@H]4CC[C@H](O)[C@@]4(C)CC[C@@H]3[C@@]2(C)CC/C1=N\OCCN` [I-aa, (E)-3-(2-Aminoethoxyimino)-4-methylandrost-4-en-17β-ol hydrochloride], in data set [1], the IC50 was found to be 4.9 µM. As to `CC1(C)/C(=N/OCCN)CC[C@@]2(C)C1CC[C@H]1[C@@H]3CC[C@H](O)[C@@]3(C)CC[C@@H]12` (stereo partly drawn) [I-ag, (E)-3-(2-Aminoethoxyimino)-4,4-dimethylandrostan-17β-ol fumarate], the IC50 in data set [1] stood at 3.9 µM. The same measure, in the same setting: as for `CC1(C)/C(=N/OCCCN)CC[C@@]2(C)C1CC[C@H]1[C@@H]3CC[C@H](O)[C@@]3(C)CC[C@@H]12` (stereo partly drawn) [I-ai, (E)-3-(3-Aminopropoxyimino)-4,4-dimethylandrostan-17β-ol fumarate], the figure is 1.9 µM; as for `CNCCCON=C1CCC2(C)C3CCC4(C)C(O)CCC4C3CCC2C1(C)C` (stereo not drawn) [I-aj, (E)-3-(3-N-Methylaminopropoxyimino)-4,4-dimethylandrostan-17β-ol fumarate], 1.4 µM; as for `CC1(C)/C(=N/O[C@@H]2CCNC2)CC[C@@]2(C)C1CC[C@H]1[C@@H]3CC[C@H](O)[C@@]3(C)CC[C@@H]12` (stereo partly drawn) [I-ak, (E)-3-[3-(R)-Pyrrolidinyl]oxyimino-4,4-dimethylandrostan-17β-ol fumarate], 2 µM. Same read-out and setting: to `CC1(C)/C(=N/O[C@H]2CCNC2)CC[C@@]2(C)C1CC[C@H]1[C@@H]3CC[C@H](O)[C@@]3(C)CC[C@@H]12` (stereo partly drawn) [I-al, (E)-3-[3-(S)-Pyrrolidinyl]oxyimino-4,4-dimethylandrostan-17β-ol fumarate] belongs 2.6 µM; to `CC1(C)/C(=N/OCCN)CC[C@@]2(C)C1CC[C@@H]1[C@@H]2CC[C@]2(C)C(=O)CC[C@@H]12` (some centres unmarked) [I-am, (E)-3-(2-Aminoethoxyimino)-4,4-dimethylandrostan-17-one fumarate], 1.7 µM.

As for `CC1(C)/C(=N/OCCCN)CC[C@@]2(C)C1CC[C@@H]1[C@@H]2CC[C@]2(C)C(=O)CC[C@@H]12` (some centres unmarked) [I-an, (E)-3-(3-Aminopropoxyimino)-4,4-dimethylandrostan-17-one fumarate], the IC50 in data set [1] is 1.5 µM. Still for that read-out and setting: to `CC1(C)/C(=N/O[C@@H]2CCNC2)CC[C@@]2(C)C1CC[C@@H]1[C@@H]2CC[C@]2(C)C(=O)CC[C@@H]12` (stereo partly drawn) [I-ao, (E)-3-[3-(R)-Pyrrolidinyl]oxyimino-4,4-dimethylandrostan-17-one fumarate] belongs 1.3 µM. In turn, `CC1(C)/C(=N/OCCN)CC[C@@]2(C)C1C(=O)C[C@@H]1[C@@H]2CC[C@]2(C)C(=O)CC[C@@H]12` (some centres unmarked) [I-at, (E)-3-(2-Aminoethoxyimino)-4,4-dimethylandrostan-6,17-dione fumarate] had an IC50 in data set [1] of 1.7 µM. In data set [1], `CC1(C)/C(=N/O[C@@H]2CCNC2)CC[C@]2(C)[C@H]3CC[C@]4(C)C(=O)CC[C@H]4[C@@H]3CC(=O)[C@@]12O` [I-au, (E)-3-[3-(R)-Pyrrolidinyl]oxyimino-4,4-dimethyl-5α-hydroxyandrostan-6,17-dione fumarate] gave an IC50 of 2.2 µM. In the case of `C[C@]12CC[C@H]3[C@@H](CC=C4C5(CC5)/C(=N/OCCN)CC[C@@]43C)[C@@H]1CC[C@@H]2O` [I-bb, (E)-3-(2-Aminoethoxyimino)-4-(spirocyclopropane)-5-androsten-17β-ol fumarate], the 50% inhibitory concentration (IC50) in data set [1] (setting [2]) is 1.5 µM.

Take `C[C@]12CC[C@H]3[C@@H](CC=C4C5(CC5)/C(=N/O[C@@H]5CCNC5)CC[C@@]43C)[C@@H]1CC[C@@H]2O` [I-bc, (E)-3-[3-(R)-Pyrrolidinyl]oxyimino-4-spirocyclopropane androst-5-en-17β-ol fumarate]: the IC50 in data set [1] (setting [2]) was determined as 1.8 µM. As for `CC[C@H]1/C(=N/OCCN)CC[C@@]2(C)C1C(=O)C[C@@H]1[C@@H]2CC[C@]2(C)C(=O)CC[C@@H]12` (stereo partly drawn) [I-bd, (E)-3-(2-Aminoethoxyimino)-4β-ethylandrostan-6,17-dione hydrochloride], in data set [1], the IC50 came to 0.13 µM. Regarding `CC[C@H]1/C(=N/O[C@@H]2CCNC2)CC[C@@]2(C)C1C(=O)C[C@@H]1[C@@H]2CC[C@]2(C)C(=O)CC[C@@H]12.Cl` (stereo partly drawn) [I-be, (E)-3-[3-(R)-Pyrrolidinyl]oxyimino-4β-ethylandrostan-6,17-dione hydrochloride], the IC50 in data set [1] worked out at 0.049 µM. For the same molecule, in the data set on anesthetized guinea-pig, the Dead/treated is recorded as 3/3; the “ED80 (inotropic potency, dose increasing +dP/dTmax by 80%)” value worked out at 1.40 µmol/kg; the “EDmax” value was determined as 2.81 µmol/kg; the “Emax % increase in +dP/dTmax” value was 179%. For the same molecule, in the data set with anesthetized guinea-pig, the Maximum dose infused amounted to 12.6 µmol/kg and the “Lethal dose/ED80” value was 7.8. The molecule `C[C@]12CC[C@H]3[C@@H](CCC4C/C(=N\OCCN)[C@H](F)C[C@@]43C)[C@@H]1CC[C@@H]2O` (stereo partly drawn) [I-bf, (E)-3-(2-Aminoethoxyimino)-2α-fluoroandrostan-17β-ol fumarate] had an IC50 in data set [1] of 2.4 µM. Same read-out and setting: to `C[C@]12CC[C@H]3[C@@H](CCC4C/C(=N\O[C@@H]5CCNC5)[C@H](F)C[C@@]43C)[C@@H]1CC[C@@H]2O` (stereo partly drawn) [I-bg, (E)-3-[3-(R)-Pyrrolidinyl]oxyimino-2α-fluoroandrostan-17β-ol fumarate] belongs 0.84 µM.

`C[C@]12C[C@@H](F)/C(=N/O[C@@H]3CCNC3)CC1CC[C@@H]1[C@@H]2CC[C@]2(C)C(=O)CC[C@@H]12.Cl` (stereo partly drawn) [I-bh, (E)-3-[3-(R)-Pyrrolidinyl]oxyimino-2α-fluoroandrostan-17-one hydrochloride] had an IC50 in data set [1] of 1.1 µM. For the same molecule, in the data set on anesthetized guinea-pig, the Dead/treated is on record as 2/2; the “ED80 (inotropic potency, dose increasing +dP/dTmax by 80%)” value came out at 7.00 µmol/kg; the “EDmax” value turned out to be 14.0 µmol/kg; the “Emax % increase in +dP/dTmax” value amounted to 210%. Besides, in the data set on anesthetized guinea-pig, the Maximum dose infused worked out at 100.8 µmol/kg and the “Lethal dose/ED80” value is recorded as 7.5. In data set [1], `C[C@]12CC[C@H]3[C@@H](CC(=O)C4C/C(=N\O[C@@H]5CCNC5)[C@H](F)C[C@@]43C)[C@@H]1CC[C@@H]2O` (stereo partly drawn) [I-bi, (E)-3-[3-(R)-Pyrrolidinyl]oxyimino-2α-fluoro-17β-hydroxyandrostan-6-one fumarate] displayed an IC50 of 1.3 µM. Regarding `CO/N=C1\C[C@H]2[C@@H]3CC[C@H](O)[C@@]3(C)CC[C@@H]2[C@@]2(C)C[C@@H](F)/C(=N/O[C@@H]3CCNC3)CC12` (stereo partly drawn) [I-bk, (E)-3-[3-(R)-Pyrrolidinyl]oxyimino-2α-fluoro-6-(E)-methoxyiminoandrostan-17β-ol fumarate], the half-maximal inhibitory concentration (IC50) in data set [1] (setting [2]) was 1.9 µM. Molecule `C[C@]12CC/C(=N\O[C@@H]3CCNC3)[C@@H](F)C1CC[C@@H]1[C@@H]2CC[C@]2(C)C(=O)CC[C@@H]12` (stereo partly drawn) [I-bl, (E)-3-[3-(R)-Pyrrolidinyl]oxyimino-4α-fluoroandrostan-17-one fumarate] showed an IC50 in data set [1] of 0.55 µM. As for `C[C@]12CC/C(=N\O[C@@H]3CCNC3)[C@@H](O)C1CC[C@@H]1[C@@H]2CC[C@]2(C)C(=O)CC[C@@H]12` (stereo partly drawn) [I-bn, (E)-3-[3-(R)-Pyrrolidinyl]oxyimino-4α-hydroxyandrostan-17-one fumarate], in data set [1], inhibition was half-maximal at 2.7 µM (IC50). In the case of `C[C@]12CC/C(=N\O[C@@H]3CCNC3)C3(CC3)C1=CC[C@@H]1[C@@H]2CC[C@]2(C)C(=O)CC[C@@H]12` [I-bo, (E)-3-[(3-(R)-Pyrrolidinyl)oxyimino]-4-spirocyclopropane-5-androsten-17-one fumarate], the IC50 in data set [1] (setting [2]) is 0.69 µM.

With `CC12CCC3C(CCC4C5(CCCC5)C(=NOC5CCNC5)CCC34C)C1CCC2O` [I-bq, (E)-3-[(3-(R)-Pyrrolidinyl)oxyimino]-4-spirocyclopentaneandrostan-17β-ol fumarate], in data set [1] (setting [2]), the IC50 is 3.1 µM. Turning to `CC12CCC3C(C(O)CC4C5(CCCC5)C(=NOC5CCNC5)CCC34C)C1CCC2O` [I-bs, (E)-3-[(3-(R)-Pyrrolidinyl)oxyimino]-4-spirocyclopentaneandrostan-7α,17β-diol fumarate], the IC50 in data set [1] (setting [2]) came out at 1.1 µM. Same read-out and setting: as for `CC(C)C1=C2CC[C@H]3[C@@H]4CC[C@H](O)[C@@]4(C)CC[C@@H]3[C@@]2(C)CC/C1=N\O[C@@H]1CCNC1` [I-bv, fumarate], the figure is 3.9 µM. Consider `CC[C@@H]1/C(=N/O[C@@H]2CCNC2)CC[C@@]2(C)C1CC[C@H]1[C@@H]3CC[C@H](O)[C@@]3(C)CC[C@@H]12` (stereo partly drawn) [I-bw, (E)-3-[(3-(R)-Pyrrolidinyl)oxyimino]-4α-ethylandrostan-17β-ol fumarate], for which, in data set [1], half-maximal inhibition (IC50) was put at 1.8 µM.

`CC[C@H]1/C(=N/O[C@@H]2CCNC2)CC[C@@]2(C)C1[C@@H](O)C[C@@H]1[C@@H]2CC[C@]2(C)C(=O)CC[C@@H]12` (stereo partly drawn) [I-bx, (E)-3-[3-(R)-Pyrrolidinyl]oxyimino-4β-ethyl-6α-hydroxyandrostan-17-one hydrochloride] gave an IC50 in data set [1] of 0.065 µM. `CC1(C)/C(=N/O[C@@H]2CCNC2)CC[C@]2(C)[C@H]3CC[C@]4(C)[C@@H](O)CC[C@H]4[C@@H]3CC[C@@]12O` [I-by, (E)-3-[3-(R)-Pyrrolidinyl]oxyimino-4,4-dimethylandrostan-5α,17β-diol hydrochloride] yielded an IC50 in data set [1] of 2.2 µM.
